This passage reports EC50 results from US10131657B2, “Bromodomain inhibitors” (AbbVie Inc., priority 2013, dated 2018).

This assay concerns breast cancer cell line MX-1. As to the kind of experiment: MX-1 cell line proliferation assay, Method A. The assay is classed as cell-based. The note with it: Homo sapiens, MX1; MX-1 cells, 96-well, 72 hours, Cell Titer Glo; read-out: Cellular proliferation: EC50 Method A. The procedure, abridged:
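MX-1 breast cancer cells (5000/well) were attached overnight in RPMI 1640 with 10% FBS, then exposed for 3 days to compound at 0.0001–3 μM final. Cell Titer Glo luminescence was normalized to DMSO controls, and EC50s were obtained by sigmoidal fitting.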

For `Cn1cc(-c2cc(S(C)(=O)=O)ccc2N[C@H]2CC[C@H](NCc3ccc(F)cc3F)CC2)c2cc[nH]c2c1=O` [Example 109, 4-[2-({trans-4-[(2,4-difluorobenzyl)amino]cyclohexyl}amino)-5-(methylsulfonyl)phenyl]-6-methyl-1,6-dihydro-7H-pyrrolo[2,3-c]pyridin-7-one], the EC50 was found to be 18.1 nM.

`Cn1cc(-c2cc(S(C)(=O)=O)ccc2N[C@H]2CC[C@H](NCc3ccc4ccccc4c3)CC2)c2cc[nH]c2c1=O` [Example 110, 6-methyl-4-[5-(methylsulfonyl)-2-({trans-4-[(naphthalen-2-ylmethyl)amino]cyclohexyl}amino)phenyl]-1,6-dihydro-7H-pyrrolo[2,3-c]pyridin-7-one]: the EC50 turned out to be 10.4 nM.

On to `COCCN[C@H]1CC[C@H](Nc2ccc(S(C)(=O)=O)cc2-c2cn(C)c(=O)c3[nH]ccc23)CC1` [Example 111, 4-[2-({trans-4-[(2-methoxyethyl)amino]cyclohexyl}amino)-5-(methylsulfonyl)phenyl]-6-methyl-1,6-dihydro-7H-pyrrolo[2,3-c]pyridin-7-one], for which the EC50 was 156 nM.

As to `CSCCCN[C@H]1CC[C@H](Nc2ccc(S(C)(=O)=O)cc2-c2cn(C)c(=O)c3[nH]ccc23)CC1` [Example 112, 6-methyl-4-{2-[(trans-4-{[3-(methylsulfanyl)propyl]amino}cyclohexyl)amino]-5-(methylsulfonyl)phenyl}-1,6-dihydro-7H-pyrrolo[2,3-c]pyridin-7-one], the EC50 was found to be 142 nM.

Regarding `Cn1cc(-c2cc(S(C)(=O)=O)ccc2N[C@H]2CC[C@H](NCc3ccc(Cl)cc3)CC2)c2cc[nH]c2c1=O` [Example 113, 4-[2-({trans-4-[(4-chlorobenzyl)amino]cyclohexyl}amino)-5-(methylsulfonyl)phenyl]-6-methyl-1,6-dihydro-7H-pyrrolo[2,3-c]pyridin-7-one], the EC50 came out at 19.5 nM.

For the molecule `Cn1cc(-c2cc(S(C)(=O)=O)ccc2Oc2ccc(F)cc2F)c2cc(CN3CCN(c4nccs4)CC3)[nH]c2c1=O` [Example 114, 4-[2-(2,4-difluorophenoxy)-5-(methylsulfonyl)phenyl]-6-methyl-2-{[4-(1,3-thiazol-2-yl)piperazin-1-yl]methyl}-1,6-dihydro-7H-pyrrolo[2,3-c]pyridin-7-one], the EC50 turned out to be 762 nM.

`Cn1cc(-c2cc(S(C)(=O)=O)ccc2Oc2ccc(F)cc2F)c2cc(CN3CCN(C4CC4)CC3)[nH]c2c1=O` [Example 115, 2-[(4-cyclopropylpiperazin-1-yl)methyl]-4-[2-(2,4-difluorophenoxy)-5-(methylsulfonyl)phenyl]-6-methyl-1,6-dihydro-7H-pyrrolo[2,3-c]pyridin-7-one]: the EC50 was found to be 411 nM.

With `Cn1cc(-c2cc(S(C)(=O)=O)ccc2Oc2ccc(F)cc2F)c2cc(CN3CCN(C4CCOCC4)CC3)[nH]c2c1=O` [Example 116, 4-[2-(2,4-difluorophenoxy)-5-(methylsulfonyl)phenyl]-6-methyl-2-{[4-(tetrahydro-2H-pyran-4-yl)piperazin-1-yl]methyl}-1,6-dihydro-7H-pyrrolo[2,3-c]pyridin-7-one], the EC50 stood at 183 nM.

Consider `CCS(=O)(=O)c1ccc(Oc2ccc(F)cc2F)c(-c2cn(C)c(=O)c3[nH]c(-c4ccnn4-c4ccccc4)cc23)c1` [Example 117, 4-[2-(2,4-difluorophenoxy)-5-(ethylsulfonyl)phenyl]-6-methyl-2-(1-phenyl-1H-pyrazol-5-yl)-1,6-dihydro-7H-pyrrolo[2,3-c]pyridin-7-one], for which the EC50 is 249 nM.

On to `CCNC(=O)c1cc2c(-c3cc(S(=O)(=O)CC)ccc3Oc3c(C)cccc3NCC3CC3)cn(C)c(=O)c2[nH]1` [Example 119, 4-[2-{2-[(cyclopropylmethyl)amino]-6-methylphenoxy}-5-(ethylsulfonyl)phenyl]-N-ethyl-6-methyl-7-oxo-6,7-dihydro-1H-pyrrolo[2,3-c]pyridine-2-carboxamide], for which the EC50 stood at 1510 nM.
